Source: ChEMBL document CHEMBL1125793 (J Med Chem, 1991)

Biological target: T1, Angiotensin II receptor (Rattus norvegicus, UniProt P29089+P25095+P35351)
T1 sequence (P29089 whole entry): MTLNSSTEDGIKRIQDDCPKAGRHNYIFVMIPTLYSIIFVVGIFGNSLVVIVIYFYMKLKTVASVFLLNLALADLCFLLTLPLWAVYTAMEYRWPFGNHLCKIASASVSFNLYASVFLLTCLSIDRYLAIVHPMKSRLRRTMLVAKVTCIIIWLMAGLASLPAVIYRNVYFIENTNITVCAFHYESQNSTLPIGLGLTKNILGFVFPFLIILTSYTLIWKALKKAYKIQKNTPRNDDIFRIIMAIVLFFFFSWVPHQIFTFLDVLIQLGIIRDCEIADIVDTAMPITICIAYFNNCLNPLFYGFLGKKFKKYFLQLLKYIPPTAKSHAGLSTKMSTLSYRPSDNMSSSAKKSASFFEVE
T1 sequence (P25095 whole entry): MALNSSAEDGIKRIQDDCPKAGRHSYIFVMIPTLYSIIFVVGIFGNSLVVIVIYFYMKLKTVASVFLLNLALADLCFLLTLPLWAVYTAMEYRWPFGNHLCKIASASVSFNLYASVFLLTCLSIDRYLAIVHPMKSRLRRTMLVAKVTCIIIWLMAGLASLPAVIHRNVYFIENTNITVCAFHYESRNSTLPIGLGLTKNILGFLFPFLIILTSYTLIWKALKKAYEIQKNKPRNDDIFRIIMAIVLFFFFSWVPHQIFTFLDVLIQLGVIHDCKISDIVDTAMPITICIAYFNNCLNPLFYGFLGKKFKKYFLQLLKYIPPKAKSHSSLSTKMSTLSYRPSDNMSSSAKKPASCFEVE
T1 sequence (P35351 whole entry): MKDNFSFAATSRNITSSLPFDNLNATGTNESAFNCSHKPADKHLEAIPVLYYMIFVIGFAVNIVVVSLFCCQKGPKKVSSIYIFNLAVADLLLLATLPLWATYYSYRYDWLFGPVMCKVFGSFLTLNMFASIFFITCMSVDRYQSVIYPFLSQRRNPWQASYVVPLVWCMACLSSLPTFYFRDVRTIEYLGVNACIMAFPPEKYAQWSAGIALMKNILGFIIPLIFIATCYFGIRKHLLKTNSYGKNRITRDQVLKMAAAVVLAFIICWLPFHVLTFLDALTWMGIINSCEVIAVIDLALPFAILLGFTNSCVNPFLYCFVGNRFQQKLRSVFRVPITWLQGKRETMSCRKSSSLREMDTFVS
Assay: Binding affinity against Angiotensin II receptor, from rat adrenal gland
Type: tissue-based

Row | SMILES | IC50 [nM]
1 | O=C(O)C1Cc2c(ncn2Cc2ccccc2)CN1C(=O)Nc1ccccc1 (stereo not given) | 2100
2 | COc1ccc(Cn2cnc3c2C[C@@H](C(=O)O)N(C(=O)C(c2ccccc2)c2ccccc2)C3)cc1C | 70
3 | COc1ccc(Cn2cnc3c2C[C@@H](C(=O)O)N(C(=O)C(c2ccccc2)c2ccccc2)C3)cc1F | 260
4 | O=C(C(c1ccccc1)c1ccccc1)N1CCc2c(ncn2Cc2ccccc2)C1 | 6100
5 | COC(=O)C1Cc2c(ncn2Cc2ccc([N+](=O)[O-])c(C)c2)CN1C(=O)C(c1ccccc1)c1ccccc1 (stereo not given) | 5100
6 | O=C(O)C1Cc2c(ncn2Cc2ccccc2)CN1C(=O)C(c1ccc([N+](=O)[O-])cc1)c1ccc([N+](=O)[O-])cc1 (stereo not given) | 13000
7 | O=C(O)C1Cc2c(ncn2Cc2ccccc2)CN1C(=O)NCc1ccccc1 (stereo not given) | 11000
8 | O=C(O)[C@H]1Cc2c(ncn2Cc2ccccc2)CN1C(=O)C(c1ccccc1)c1ccccc1 | 1200
9 | Nc1ccc(Cn2cnc3c2C[C@@H](C(=O)O)N(C(=O)C(c2ccccc2)c2ccccc2)C3)cc1 | 150
10 | O=C(O)[C@@H]1Cc2c(ncn2Cc2ccc([N+](=O)[O-])cc2)CN1C(=O)C(c1ccccc1)c1ccccc1 | 610
11 | CC(=O)Nc1ccc(Cn2cnc3c2C[C@@H](C(=O)O)N(C(=O)C(c2ccccc2)c2ccccc2)C3)cc1C | 89
12 | O=C(O)C1Cc2ncn(Cc3ccccc3)c2CN1C(=O)/C=C/c1ccccc1 (stereo not given) | 29000
13 | O=C(O)C1Cc2c(ncn2Cc2ccccc2)CN1C(=O)COc1ccccc1 (stereo not given) | 4000
14 | Cc1cc(Cn2cnc3c2CC(CO)N(C(=O)C(c2ccccc2)c2ccccc2)C3)ccc1[N+](=O)[O-] (stereo not given) | 2000
15 | COC(=O)C1Cc2c(ncn2Cc2ccccc2)CN1C(=O)C(c1ccccc1)c1ccccc1 (stereo not given) | 8800
16 | Cc1cc(Cn2cnc3c2CC(CO)N(C(=O)C(c2ccccc2)c2ccccc2)C3)ccc1N(C)C (stereo not given) | 200
17 | CN(C(=O)N1Cc2ncn(Cc3ccccc3)c2CC1C(=O)O)c1ccccc1 (stereo in doubt; 3) | 1200
18 | O=C(O)C1Cc2c(ncn2Cc2ccccc2)CN1C(=O)CCc1ccccc1 (stereo not given) | 13000
19 | COc1ccc(Cn2cnc3c2C[C@@H](C(=O)O)N(C(=O)C(C)(c2ccccc2)c2ccccc2)C3)cc1C | 9500
20 | COc1ccc(Cn2cnc3c2C[C@@H](C(=O)O)N(C(=O)N(C)c2ccccc2)C3)cc1C | 140
21 | COc1ccc(Cn2cnc3c2C[C@@H](C(=O)O)N(C(=O)C(c2ccccc2)c2ccccc2)C3)cc1[N+](=O)[O-] | 51
22 | COc1ccc(Cn2cnc3c2C[C@@H](C(=O)O)N(C(=O)/C=C\c2ccccc2)C3)cc1C | 2200
23 | COc1ccc(Cn2cnc3c2C[C@@H](C(=O)O)N(C(=O)C(c2ccccc2)c2ccccc2)C3)cc1 | 290
24 | COc1ccc(Cn2cnc3c2C[C@@H](C(=O)O)N(C(=O)C(Cc2ccccc2)c2ccccc2)C3)cc1C (stereo not given in full) | 3500

Row | SMILES | IC50 [nM]
25 | COc1ccc(Cn2cnc3c2CCN(C(=O)C(c2ccccc2)c2ccccc2)C3)cc1C | 4400
26 | COc1ccc(Cn2cnc3c2C[C@@H](C(=O)O)N(C(=O)C(c2ccc(F)cc2)c2ccc(F)cc2)C3)cc1C | 2300
27 | COc1ccc(Cn2cnc3c2C[C@@H](C(=O)O)N(C(=O)CC(c2ccccc2)c2ccccc2)C3)cc1C | 4200
28 | O=C(O)C1Cc2c(ncn2Cc2ccccc2)CN1C(=O)C(c1ccc(F)cc1)c1ccc(F)cc1 (stereo not given) | 2100
29 | O=C(O)C1Cc2c(ncn2Cc2ccccc2)CN1S(=O)(=O)Cc1ccccc1 (stereo not given) | 19000
30 | O=C(O)[C@@H]1Cc2c(ncn2Cc2cccc(Br)c2)CN1C(=O)C(c1ccccc1)c1ccccc1 | 650
31 | O=C(O)C1Cc2c(ncn2Cc2ccccc2)CN1C(=O)OCc1ccccc1 (stereo in doubt; 7) | 14000
32 | COc1ccc(Cn2cnc3c2C[C@@H](C(=O)O)N(C(=O)Cc2ccccc2)C3)cc1C | 530
33 | COc1ccc(Cn2cnc3c2CC(CO)N(C(=O)N(C)c2ccccc2)C3)cc1C (stereo not given) | 520
34 | CN(C)c1ccc(Cn2cnc3c2C[C@@H](C(=O)O)N(C(=O)C(c2ccccc2)c2ccccc2)C3)cc1 | 85
35 | COc1ccc(Cn2cnc3c2C[C@@H](C(=O)O)N(C(=O)C(C)c2ccccc2)C3)cc1C (stereo not given in full) | 560
36 | CN(C(=O)N1Cc2ncn(Cc3ccccc3)c2CC1C(=O)O)c1ccccc1 (stereo in doubt; 3a) | 1100
37 | O=C(O)[C@@H]1Cc2c(ncn2Cc2ccc(F)cc2)CN1C(=O)C(c1ccccc1)c1ccccc1 | 450
38 | Cc1ccc(Cn2cnc3c2C[C@@H](C(=O)O)N(C(=O)C(c2ccccc2)c2ccccc2)C3)cc1C | 300
39 | COc1ccc(Cn2cnc3c2C[C@@H](C(=O)O)N(C(=O)C(c2ccc([N+](=O)[O-])cc2)c2ccc([N+](=O)[O-])cc2)C3)cc1C | 13000
40 | O=C(O)C1Cc2c(ncn2Cc2ccccc2)CN1C(=O)OCc1ccccc1 (stereo in doubt; 7a) | 4200
41 | Cc1cc(C)cc(Cn2cnc3c2C[C@@H](C(=O)O)N(C(=O)C(c2ccccc2)c2ccccc2)C3)c1 | 140
42 | O=C(C(c1ccccc1)c1ccccc1)N1Cc2ncn(Cc3ccccc3)c2CC1CO (stereo not given) | 2100
43 | O=C(O)[C@@H]1Cc2c(ncn2Cc2ccc3ccccc3c2)CN1C(=O)C(c1ccccc1)c1ccccc1 | 270
44 | O=C(O)[C@@H]1Cc2c(ncn2Cc2cccnc2)CN1C(=O)C(c1ccccc1)c1ccccc1 | 120
45 | CC(=O)Nc1ccc(Cn2cnc3c2C[C@@H](C(=O)O)N(C(=O)C(c2ccccc2)c2ccccc2)C3)cc1 | 350
46 | Cc1cc(Cn2cnc3c2C[C@@H](C(=O)O)N(C(=O)C(c2ccccc2)c2ccccc2)C3)ccc1O | 56
47 | CC(C)NC(=O)N1Cc2ncn(Cc3ccccc3)c2CC1C(=O)O (stereo not given) | 21000
48 | Cc1cc(Cn2cnc3c2C[C@H](C(=O)O)N(C(=O)C(c2ccccc2)c2ccccc2)C3)ccc1N(C)C.O | 97

Row | SMILES | IC50 [nM]
49 | Cc1cc(Cn2cnc3c2C[C@@H](C(=O)O)N(C(=O)C(c2ccccc2)c2ccccc2)C3)ccc1[N+](=O)[O-] | 290
50 | O=C(O)[C@@H]1Cc2c(ncn2CCc2ccccc2)CN1C(=O)C(c1ccccc1)c1ccccc1 | 240
51 | COc1ccc(Cn2cnc3c2C[C@@H](C(=O)O)N(C(=O)CC2CCCCC2)C3)cc1C | 2000
52 | COc1ccc(Cn2cnc3c2C[C@@H](C(=O)O)N(C(=O)C(c2ccccc2)C2CCCCC2)C3)cc1C (stereo not given in full) | 85
53 | CCc1cc(Cn2cnc3c2C[C@@H](C(=O)O)N(C(=O)C(c2ccccc2)c2ccccc2)C3)ccc1OC | 50
54 | O=C(O)[C@@H]1Cc2c(ncn2CCC2CCCCC2)CN1C(=O)C(c1ccccc1)c1ccccc1 | 240
55 | COc1ccc(Cn2cnc3c2C[C@@H](C(=O)O)N(C(=O)C2(c4ccccc4)CCCC2)C3)cc1C | 840
56 | COc1ccc(Cn2cnc3c2C[C@@H](C(=O)O)N(C(=O)C(c2ccc(C)cc2)c2ccc(C)cc2)C3)cc1C | 510
57 | COc1cccc(Cn2cnc3c2C[C@@H](C(=O)O)N(C(=O)C(c2ccccc2)c2ccccc2)C3)c1 | 120
58 | CC(c1ccccc1)n1cnc2c1C[C@@H](C(=O)O)N(C(=O)C(c1ccccc1)c1ccccc1)C2 (stereo not given in full) | 1100
59 | COc1ccc(Cn2cnc3c2C[C@@H](C(=O)O)N(C(=O)C(c2ccccc2)C2CCCC2)C3)cc1C (stereo not given in full) | 67
60 | COc1ccc(Cn2cnc3c2C[C@@H](C(=O)O)N(C(=O)C2(c4ccccc4)CCCCC2)C3)cc1C | 110
61 | O=C(O)C1Cc2c(ncn2Cc2ccccc2)CN1C(=O)Cc1ccccc1 (stereo in doubt; 14a) | 740
62 | COc1ccc(Cn2cnc3c2C[C@@H](C(=O)O)N(C(=O)CC24CC5CC(CC(C5)C2)C4)C3)cc1C | 28000
63 | O=C(O)[C@@H]1Cc2c(ncn2C(c2ccccc2)c2ccccc2)CN1C(=O)C(c1ccccc1)c1ccccc1 | 110
64 | O=C(O)C1Cc2c(ncn2Cc2ccccc2)CN1C(=O)Cc1ccccc1 (stereo in doubt; 14) | 1400
65 | O=C(O)C1Cc2c(ncn2Cc2ccccc2)CN1C(=O)CC(c1ccccc1)c1ccccc1 (stereo not given) | 1200
66 | CN(C(=O)N1Cc2ncn(Cc3ccccc3)c2CC1CO)c1ccccc1 (stereo not given) | 1600
67 | Cc1ccc(S(=O)(=O)N2Cc3ncn(Cc4ccccc4)c3CC2C(=O)O)cc1 (stereo not given) | 4200
68 | O=C(C(c1ccccc1)C1CCCC1)N1Cc2ncn(Cc3ccccc3)c2CC1CO (stereo not given) | 6700
69 | O=C(O)C1Cc2c(ncn2Cc2ccccc2)CN1C(=O)C(c1ccccc1)c1ccccc1 (stereo in doubt; 18) | 1000
70 | COc1ccc(Cn2cnc3c2C[C@@H](C(=O)O)N(C(=O)C(c2ccccc2)c2ccccc2)C3)cc1OC | 98
